Measured values published in publication PMC6514978, “Synthesis, Antibacterial Activities, Mode of Action and Acute Toxicity Studies of New Oxazolidinone-Fluoroquinolone Hybrids” (Molecules, 2019).
Values after ≈ are worked out from the molar mass of the structure shown.

Columns and labels:
[1] = system: E. faecalis (72) clinical isolates; assay: Susceptibility of clinical isolates (MIC); format: cell-based, Enterococcus faecalis; settings: for MIC Range / MIC50 / MIC90: E. faecalis, 72 clinical isolates; for MIC50 / MIC90: Enterococcus faecalis
Description: (§1) Susceptibility testing of oxazolidinone-fluoroquinolone hybrids against various bacteria was performed by the broth microdilution method as outlined by the Clinical and Laboratory Standards Institute (CLSI). Three types of media, including cation-adjusted Mueller Hinton broth, Haemophilus Test Medium and cation-adjusted Mueller Hinton broth that contained 3%–5% lysed horse blood, were used to culture the corresponding bacteria. […] A final inoculum of 5 × 10^5 CFU/mL was used and plates were read after incubation for 16–24 h at 35 °C. […] Standard quality control strains (ATCC) were included throughout. Each determination was repeated in triplicate.

[2] = system: S. suis (9) clinical isolates; assay: Susceptibility of clinical isolates (MIC); format: cell-based, Streptococcus suis; settings: Streptococcus suis, S. suis, 9 clinical isolates; for MIC50: read-out: MIC50; for MIC90: read-out: MIC90; for MIC: read-out: MIC Range
Description: as §1

[3] = system: S. haemolyticus (32) clinical isolates; assay: Susceptibility of clinical isolates (MIC); format: cell-based, Staphylococcus haemolyticus; settings: for MIC50 / MIC90 / MIC: Staphylococcus haemolyticus, S. haemolyticus, 32 clinical isolates; for MIC50: read-out: MIC50; for MIC90: read-out: MIC90; for MIC: read-out: MIC Range
Description: as §1

[4] = system: E. faecium (47) clinical isolates; assay: Susceptibility of clinical isolates (MIC); format: cell-based, Enterococcus faecium; settings: for MIC Range / MIC50 / MIC90: E. faecium, 47 clinical isolates; for MIC50 / MIC90: Enterococcus faecium; for MIC50: read-out: MIC50; for MIC90: read-out: MIC90
Description: as §1

[5] = system: LZD-resistant E. faecalis; assay: microbe, parasite or virus in culture; format: cell-based; settings: Enterococcus faecalis
Description: (§2) 6 standard strains and 3 clinical isolates were used to the preliminary evaluation of in vitro antibacterial activities of oxazolidinone-fluoroquinolone hybrids.
as §1

[6] = system: S. pneumoniae (13) clinical isolates; assay: Susceptibility of clinical isolates (MIC); format: cell-based, Streptococcus pneumoniae; settings: for MIC50 / MIC90: Streptococcus pneumoniae; for MIC50: read-out: MIC50; for MIC90: read-out: MIC90
Description: as §1

[7] = system: MRSE; assay: MIC against drug-resistant strain; format: cell-based, S. epidermidis; settings: Staphylococcus epidermidis, read-out: MIC
Description: as §2, §1

[8] = system: S. epidermidis (10) clinical isolates; assay: Susceptibility of clinical isolates (MIC); format: cell-based, Staphylococcus epidermidis; settings: for MIC50 / MIC90 / MIC: Staphylococcus epidermidis, S. epidermidis, 10 clinical isolates; for MIC50: read-out: MIC50; for MIC90: read-out: MIC90; for MIC: read-out: MIC Range
Description: as §1

[9] = system: S. aureus (46) clinical isolates; assay: Susceptibility of clinical isolates (MIC); format: cell-based, Staphylococcus aureus; settings: for MIC50 / MIC90 / MIC: Staphylococcus aureus, S. aureus, 46 clinical isolates; for MIC50: read-out: MIC50; for MIC90: read-out: MIC90; for MIC: read-out: MIC Range
Description: as §1

[10] = system: H. parasuis (34) clinical isolates; assay: Susceptibility of clinical isolates (MIC); format: cell-based, Haemophilus parasuis; settings: H. parasuis, 34 clinical isolates; for MIC50 / MIC90: Glaesserella parasuis; for MIC50: read-out: MIC50; for MIC90: read-out: MIC90
Description: as §1

[11] = system: CIP-resistant S. haemolyticus; assay: MIC against drug-resistant strain; format: cell-based; settings: Staphylococcus haemolyticus; S. haemolyticus, CIP-resistant; read-out: MIC
Description: as §2, §1

[12] = system: VAN and quinolone-resistant S. pneumoniae; assay: MIC against drug-resistant strain; format: cell-based; settings: Streptococcus pneumoniae; S. pneumoniae, VAN and quinolone-resistant; read-out: MIC
Description: as §2, §1

[13] = system: CIP-resistant S. aureus; assay: MIC against drug-resistant strain; format: cell-based; settings: Staphylococcus aureus; S. aureus, CIP-resistant; read-out: MIC
Description: as §2, §1

[14] = system: VAN and quinolone-resistant E. faecium; assay: MIC against drug-resistant strain; format: cell-based; settings: Enterococcus faecium; E. faecium, VAN and quinolone-resistant; read-out: MIC
Description: as §2, §1

[15] = system: LZD and quinolone-resistant E. faecium; assay: MIC against drug-resistant strain; format: cell-based; settings: Enterococcus faecium; E. faecium, LZD and quinolone-resistant; read-out: MIC
Description: as §2, §1

[16] = system: MRSA; assay: MIC against drug-resistant strain; format: cell-based; settings: Staphylococcus aureus, read-out: MIC
Description: as §2, §1

[17] = S. haemolyticus clinical isolates, CLSI criteria
[18] = E. faecium clinical isolates, CLSI criteria
[19] = S. pneumoniae clinical isolates, CLSI criteria
[20] = S. pneumoniae, 13 clinical isolates
[21] = S. epidermidis clinical isolates, CLSI criteria
[22] = S. aureus clinical isolates, CLSI criteria

In the case of `COc1c(N2CCNC(C)C2)c(F)cc2c(=O)c(C(=O)O)cn(C3CC3)c12` (centres unmarked) [GAFX, gatifloxacin], the “CLSI %S (susceptible)” value ([1]; E. faecalis clinical isolates, CLSI criteria) is reported as 94.6/- %, the “MIC Range” value [1] is reported as 0.125 to 2 mg/L and the MIC50 [1] is reported as 0.25 mg/L (≈ 0.666 µM). The MIC90 [1] was 0.5 mg/L (≈ 1.33 µM), the MIC50 [2] was ≤ 0.0625 mg/L and the MIC90 [2] was 4 mg/L (≈ 10.7 µM). For the same compound, the MIC [2] was 0.0625 to 4 mg/L (≈ 0.166 to 10.7 µM), the “CLSI %R (resistant)” value [3, 17] was 3.8% and the “CLSI %S (susceptible)” value [3, 17] was 96.2%. The MIC50 [3] was 0.125 mg/L (≈ 0.333 µM), the MIC90 [3] was 0.25 mg/L (≈ 0.666 µM) and the MIC [3] was 0.0625 to 2 mg/L (≈ 0.166 to 5.33 µM). The “CLSI %R (resistant)” value [4, 18] was 13.8%, the “CLSI %S (susceptible)” value [4, 18] was 86.2% and the “MIC Range” value [4] was 0.25 to 8 mg/L. The MIC50 [4] was 1 mg/L (≈ 2.66 µM), the MIC90 [4] was 8 mg/L (≈ 21.3 µM) and the MIC [5] was 0.5 mg/L (≈ 1.33 µM). The “CLSI %R (resistant)” value [6, 19] was 92.3%, the “CLSI %S (susceptible)” value [6, 19] was 7.7% and the “MIC Range” value [6, 20] was 4 to 32 mg/L. The MIC50 [6, 20] was 4 mg/L (≈ 10.7 µM), the MIC90 [6, 20] was 32 mg/L (≈ 85.2 µM) and the MIC [7] was ≤ 0.0625 mg/L. The “CLSI %R (resistant)” value [8, 21] was 50.0%, the “CLSI %S (susceptible)” value [8, 21] was 30.0% and the MIC50 [8] was 1 mg/L (≈ 2.66 µM). For the same compound, the MIC90 [8] was 2 mg/L (≈ 5.33 µM), the MIC [8] was 0.125 to 2 mg/L (≈ 0.333 to 5.33 µM) and the “CLSI %R (resistant)” value [9, 22] was 42.4%. The “CLSI %S (susceptible)” value [9, 22] was 45.5%, the MIC50 [9] was 1 mg/L (≈ 2.66 µM) and the MIC90 [9] was 2 mg/L (≈ 5.33 µM). For the same compound, the MIC [9] was 0.0625 to 2 mg/L (≈ 0.166 to 5.33 µM), the MIC50 [10] was ≤ 0.0625 mg/L and the MIC90 [10] was 1 mg/L (≈ 2.66 µM). The “MIC Range” value [10] was ≤0.0625 to 1 mg/L, the MIC [11] was 2 mg/L (≈ 5.33 µM) and the MIC [12] was > 32 mg/L. For the same compound, the MIC [13] was 2 mg/L (≈ 5.33 µM), the MIC [14] was 16 mg/L (≈ 42.6 µM) and the MIC [15] was 8 mg/L (≈ 21.3 µM). The MIC [16] was 0.125 mg/L (≈ 0.333 µM).

With `CC1CCc2c(N3CCC(O)CC3)c(F)cc3c(=O)c(C(=O)O)cn1c23` (centres unmarked) [NDFX, nadifloxacin] the “MIC Range” value [1] was 0.125 to 2 mg/L, the MIC50 [1] was 0.25 mg/L (≈ 0.694 µM) and the MIC90 [1] was 1 mg/L (≈ 2.77 µM). The MIC50 [2] was ≤ 0.0625 mg/L, the MIC90 [2] was 2 mg/L (≈ 5.55 µM) and the MIC [2] was 0.0625 to 4 mg/L (≈ 0.173 to 11.1 µM). For the same compound, the MIC50 [3] was ≤ 0.0625 mg/L, the MIC90 [3] was 0.5 mg/L (≈ 1.39 µM) and the MIC [3] was 0.0625 to 4 mg/L (≈ 0.173 to 11.1 µM). For the same compound, the “MIC Range” value [4] was 0.5 to 16 mg/L, the MIC50 [4] was 2 mg/L (≈ 5.55 µM) and the MIC90 [4] was 8 mg/L (≈ 22.2 µM). The MIC [5] was 1 mg/L (≈ 2.77 µM), the MIC50 [6, 20] was 16 mg/L (≈ 44.4 µM) and the MIC90 [6, 20] was > 32 mg/L. For the same compound, the MIC [7] was 0.125 mg/L (≈ 0.347 µM), the MIC50 [8] was 1 mg/L (≈ 2.77 µM) and the MIC90 [8] was 2 mg/L (≈ 5.55 µM). For the same compound, the MIC [8] was 0.0625 to 2 mg/L (≈ 0.173 to 5.55 µM), the MIC50 [9] was 0.5 mg/L (≈ 1.39 µM) and the MIC90 [9] was 0.5 mg/L (≈ 1.39 µM). The MIC [9] was 0.0625 to 2 mg/L (≈ 0.173 to 5.55 µM), the MIC50 [10] was ≤ 0.0625 mg/L and the MIC90 [10] was 1 mg/L (≈ 2.77 µM). The “MIC Range” value [10] was ≤0.0625 to 1 mg/L, the MIC [11] was 4 mg/L (≈ 11.1 µM) and the MIC [12] was > 32 mg/L. For the same compound, the MIC [13] was 0.5 mg/L (≈ 1.39 µM), the MIC [14] was 32 mg/L (≈ 88.8 µM) and the MIC [15] was 16 mg/L (≈ 44.4 µM). The MIC [16] was ≤ 0.0625 mg/L.
